Reference: patent US10238685B2, “Compositions containing polymeric sulfur and uses thereof” (Johnson & Johnson Consumer Inc., priority 2015, dated 2019)
Like-named read-outs stand apart in the source and are kept apart here.

Tests used:
Assay type in all cases: cell-based
[1] = system: IL-1α pro-inflammatory cytokine release; assay: IL-1α cytokine release in human skin equivalents (EPI 200 HCF-PRF)
Protocol: The potential to induce the pro-inflammatory cytokine release IL1-a by either the polymeric sulfur (Sn) and of regular sulfur (S) were evaluated in human skin equivalents. Human skin equivalents (EPI 200 HCF-PRF), multilayer and differentiated epidermis consisting of normal human epidermal keratinocytes, were purchased from MatTek (Ashland, Mass.). Upon receipt, skin equivalents were incubated for 24 hours at 37° C. in maintenance medium without hydrocortisone. Equivalents were topically treated (0.1%, 1% and 10%) with either polymeric sulfur (IS-90, Wuxi Wanli Chemical, China) or regular sulfur (S, Sigma-Aldrich, St Louis, Mo., USA) in 70% ethanol/30% propylene glycol vehicle, and compared to either vehicle alone used as negative control, or to the 10 mM SDS used as positive control. Equivalents were incubated for 48 hours at 37° C. with maintenance medium then supernatants were analyzed for IL-1α pro-inflammatory cytokine release using MILLIPLEX®MAP kit (Millipore Corp., Billerica, Mass.).

IL-8 cytokine release = IL-8 cytokine release in normal human epidermal keratinocytes
Protocol: The irritation/inflammatory/mildness potential of polymeric sulfur (Sn) and of regular sulfur (S) were evaluated in-vitro in human primary cell cultures. Normal human epidermal keratinocytes were purchased from Promocell (Heidelberg, Germany). The cells were plated in 24-well tissue culture treated plates at a density of 30,000 cells/well in Lonza KGM-Gold BulletKit without hydrocortisone (Lonza, Walkersville, Md., USA). After 48 hours, cells were treated with the actives described below: Polymeric form of sulfur (Wuxi Wanli Chemical, China) and the regular form of sulfur (Sigma-Aldrich, St Louis, Mo.) at indicated concentrations for 24 hours, following which supernatants were collected and analyzed for IL-8 and IL-1α cytokine release using MILLIPLEX®MAP kit (Millipore Corp., Billerica, Mass.).

[2] = system: Propionibacterium acnes ATCC 6919; assay: Antimicrobial Efficacy Test - Microcentrifuge Tube Method, P. acnes; details: for Log / cfu/ml / log reduction: 30 minute exposure
Protocol: (§1) For efficacy studies against Propionibacterium acnes, Staphylococcus aureus, and Escherichia coli 1% test sample suspensions [Sulfur (S) Sigma or Polymeric Sulfur (Sn) IS90 from Wuxi Wanli Chemical, China] were prepared as w/v in Butterfield's Phosphate Buffer. Serial dilutions of 1:10 were performed v/v for lower concentrations. Aliquots were then pipetted into microcentrifuge tube for exposure to test organism. Concentrations of 10% and 5% for testing against Aspergillus brasiliensis were weighed and diluted directly in microcentrifuge tubes. Each test organism was standardized to concentration of 10E6 cfu/ml. Test sample was inoculated as 1:10 (0.1 ml inoculum to 0.9 ml sample) for final concentration of 10E5 cfu/ml sample. Buffer control sample was included and used to calculate log reduction for each test sample. After inoculation, study tubes were placed at 37° C. (±2° C.), shaking at 1000 rpm for set exposure time (30 minutes, 1 hour or 3 hours). At completion of exposure time, each tube was centrifuged for 10 seconds to settle test material out of suspension. Aliquot of fluid was removed, serial diluted and plated for recovery of viable organisms. Each organism was plated on appropriate media and incubated at proper temperature and length of time before counting recoveries.

[3] = system: Staphylococcus aureus ATCC 6538; assay: Antimicrobial Efficacy Test - Microcentrifuge Tube Method, S. aureus; details: for Log / cfu/ml / log reduction: 60 minute exposure
Protocol: as §1

[4] = system: Escherichia coli ATCC 8739; assay: Antimicrobial Efficacy Test - Microcentrifuge Tube Method, E. coli; details: for Log / cfu/ml / log reduction: 30 minute exposure
Protocol: as §1

[5] = system: Aspergillus brasiliensis ATCC 16404; assay: Antimicrobial Efficacy Test - Microcentrifuge Tube Method, A. brasiliensis; details: for Log / cfu/ml / log reduction: 3 hour exposure
Protocol: as §1

[6] = system: IL-22-induced IL-8 cytokine release; assay: IL-22-induced IL-8 cytokine release in normal human epidermal keratinocytes
Protocol: The anti-inflammatory potential of polymeric sulfur (Sn) and of regular sulfur (S) were evaluated in-vitro in human primary epidermal cell cultures. Normal human epidermal keratinocytes were purchased from Promocell (Heidelberg, Germany). The cells were plated in 24-well tissue culture treated plates at a density of 30,000 cells/well in Lonza KGM-Gold Bullet Kit without hydrocortisone (Lonza, Walkersville, Md.). After 48 hours, cells were treated with the actives described below: Polymeric form of sulfur (IS-90, Wuxi Wanli Chemical, China) and the regular form of sulfur (Sigma-Aldrich, St Louis, Mo., USA) at indicated concentrations, either in the presence or absence of the pro-inflammatory cytokine IL-22 (R&D Systems, Minneapolis, Minn.) 20 ng/ml. Following the treatment period of 24 hrs, the cell culture media supernatants were collected and analyzed for IL-8 cytokine release using MILLIPLEX®MAP kit (Millipore Corp., Billerica, Mass.).

Polymeric Sulfur [Sn]
stimulation of pro-inflammatory cytokine IL-1α (FIG. 2) [1]: did not induce the production of IL-1α to the same extent | stimulation of pro-inflammatory cytokine IL-8 vs untreated control cells (FIG. 3) (IL-8 cytokine release): showed significantly lower stimulation of the pro-inflammatory cytokine IL-8

S1SSSSSSS1 [S, Sulfur]
Log ([2]; 0.001%): 5.3 | cfu/ml ([2]; 0.001%): 2.0E+05 cfu/ml | log reduction ([2]; 0.001%): 0.1 | Log ([2]; 0.01%): 5.3 | cfu/ml ([2]; 0.01%): 1.9E+05 cfu/ml | log reduction ([2]; 0.01%): 0.1 | Log ([2]; 0.1%): 5.3 | cfu/ml ([2]; 0.1%): 1.8E+05 cfu/ml | log reduction ([2]; 0.1%): 0.1 | Log ([2]; 1% w/v): 5.2 | cfu/ml ([2]; 1% w/v): 1.6E+05 cfu/ml | log reduction ([2]; 1% w/v): 0.2 | antimicrobial efficacy, conclusion ([2]; at 0.01% or 0.001%): Neither form was efficacious | Log ([3]; 0.001%): 4.0 | cfu/ml ([3]; 0.001%): 9.1E+03 cfu/ml | log reduction ([3]; 0.001%): 1.4 | Log ([3]; 0.01%): 4.0 | cfu/ml ([3]; 0.01%): 1.0E+04 cfu/ml | log reduction ([3]; 0.01%): 1.4 | Log ([3]; 0.1%): 3.5 | cfu/ml ([3]; 0.1%): 3.0E+03 cfu/ml | log reduction ([3]; 0.1%): 1.9 | Log ([3]; 1% w/v): 5.3 | cfu/ml ([3]; 1% w/v): 2.1E+05 cfu/ml | log reduction ([3]; 1% w/v): 0.1 | antimicrobial efficacy, conclusion ([3]; at 0.1%): the forms were equivalent | Log ([4]; 0.001%): 6.1 | cfu/ml ([4]; 0.001%): 1.3E+06 cfu/ml | log reduction ([4]; 0.001%): 0.1 | Log ([4]; 0.01%): 6.1 | cfu/ml ([4]; 0.01%): 1.3E+06 cfu/ml | log reduction ([4]; 0.01%): 0.1 | Log ([4]; 0.1%): 6.1 | cfu/ml ([4]; 0.1%): 1.4E+06 cfu/ml | log reduction ([4]; 0.1%): 0.1 | Log ([4]; 1% w/v): 6.2 | cfu/ml ([4]; 1% w/v): 1.5E+06 cfu/ml | log reduction ([4]; 1% w/v): 0.0 | antimicrobial efficacy, conclusion ([4]; at 0.1%, 0.01% or 0.001%): Neither form was efficacious | Log ([5]; 0.1%): 5.5 | cfu/ml ([5]; 0.1%): 3.2E+05 cfu/ml | log reduction ([5]; 0.1%): −0.1 | Log ([5]; 1%): 5.3 | cfu/ml ([5]; 1%): 2.0E+05 cfu/ml | log reduction ([5]; 1%): 0.1 | Log ([5]; 5%): 5.5 | cfu/ml ([5]; 5%): 2.9E+05 cfu/ml | log reduction ([5]; 5%): −0.1 | Log ([5]; 10%): 5.4 | cfu/ml ([5]; 10%): 2.8E+05 cfu/ml | log reduction ([5]; 10%): 0.0 | antimicrobial efficacy, conclusion ([5]; at 1% or 0.01%): Neither was efficacious | IL-8 release vs untreated control cells in presence of IL-22 (FIG. 1) ([6]; 0.01% up to 3%, IL-22 20 ng/ml, 24 hrs): did induce significantly the stimulation of the pro-inflammatory cytokine IL-8 | anti-inflammatory potential in human primary epidermal cells in vitro ([6]; composition, measured per procedure of the Examples): greater than 220 pg/ml | stimulation of pro-inflammatory cytokine IL-1α (FIG. 2) ([1]; topical 0.1%, 1% and 10% in 70% ethanol/30% propylene glycol, 48 hours): did induce the stimulation of the pro-inflammatory cytokine IL-1α in a dose-dependent manner | stimulation of pro-inflammatory cytokine IL-8 vs untreated control cells (FIG. 3) (IL-8 cytokine release; 0.01% up to 3%, 24 hours, no IL-22): did induce significantly the stimulation of the pro-inflammatory biomarker cytokine IL-8
